Measurements from patent US11998602B2, “Methods for promoting myelination and for treating demyelinating diseases” (The Scripps Research Institute, priority 2018, dated 2024).

Assays:
OPCs [1] = assay: Binary global metabolomics analysis of taurine co-treatment; format: cell-based, rat; conditions: for Cysteine pool, increase with taurine / Serine pool, increase with taurine / GSH level, increase with taurine / Cysteine level, increase with taurine / Serine level, increase with taurine: 20 mM taurine; for Cysteine pool, increase with taurine / Serine pool, increase with taurine: 3 days
Protocol: (§1) Rat primary optic nerve OPCs were isolated by panning (>99% A2B5^+) and cultured in poly-D-lysine (10 μg/ml)-coated TC dishes in OPC culture media (Neurobasal Media, Invitrogen) supplemented with B27-without vitamin A (Invitrogen), 1× non-essential amino acids, 1× Glutamax, 1× anti-anti, β-mercaptoethanol and PDGF-AA (50 ng/ml; Peprotech) at 37° C. with 5% CO2. The culture medium was replaced every 48 h and cells were collected before the confluency reached 60% to maintain a naive state. For differentiation, OPCs were plated at 1 million cells in one 10 cm petri-dish filled with differentiation media, which is identical to the culture media, but with PDGF-AA at 2 ng/ml. T3 and DMSO were used as the positive control and negative control, respectively. Five replicates of cells were collected at different times (0, 3, and 6 days) for metabolomics studies.
Global metabolomics and lipidomics. Cells incubated in differentiation medium were collected at Day 0, 3 and 6 for both the T3 and DMSO treated OPC. The cells were first rinsed with PBS twice to completely remove the culture medium and then scraped into a 1.5 mL Eppendorf vial using 500-1000 μL PBS. Subsequently, cells were collected by aspirating the supernatant after centrifugation at 1,000 rpm at 4° C. for 3 min. The global metabolites were extracted from cell pellets by a methanol:acetonitrile:water (2:2:1, v/v) solvent mixture. A volume of 600 μL of cold solvent was added to each pellet, vortexed for 30 s, and soaked in liquid nitrogen for 1 min. Samples were then allowed to thaw at room temperature and then sonicated for 10 min. This freeze-thaw process was repeated for additional twice. To further precipitate proteins, samples were incubated for 1 h at […], followed by centrifugation at 16,000 g at 4° C. for 15 min. The protein concentration of the cells was measured in the final pellet after centrifugation using BCA assay. The resulting supernatant was removed and evaporated to dryness in a vacuum concentrator (LABCONCO CentriVap Benchtop). The dry extracts were then reconstituted in the appropriate volume of acetonitrile/water (1:1, v/v), normalized by the protein concentration with the lowest concentration approximately 50 μL, sonicated for 10 min, and centrifuged for 15 min at 16,000 g and 4° C. to remove insoluble debris. The supernatants were transferred to HPLC vials with inserts and stored at −80° C. prior to LC/MS analysis. The Folch method was used to extract the lipids from OPCs treated with T3 and DMSO for 6 days. A mixture of 600 μL, chloroform/MeOH (2:1, v/v) was used in the freeze-thaw extraction method as described above, and a subsequent addition of 600 μL, of water was performed. Using this liquid-liquid extraction method, the organic phase was collected, dried and finally reconstituted in IPA/MeOH/H2O (5:1:4, v/v/v) before analysis.
Cell extracts were analyzed on a 6550 iFunnel QTOF mass spectrometer (Agilent Technologies) coupled with a 1290 UPLC system (Agilent Technologies). For global metabolomics, HPLC was carried out on a Luna Aminopropyl, 3 μm, 150 mm×1.0 mm I.D. HILIC column (Phenomenex). The mobile phase was composed of A=20 mM ammonium acetate and 40 mM ammonium hydroxide in 95% water (v/v) and B=95% acetonitrile. The remaining 5% components were either acetonitrile or water, respectively. A linear gradient from 100% B (0-5 min) to 100% A (50-55 min) was applied. A 10 min re-equilibration time was applied to the HILIC column for re-equilibration and maintenance of reproducibility. The flow rate was 50 μL/min, and the sample injection volume was 5 μL. ESI source conditions were set as follows: dry gas temperature, 200° C.; flow, 11 L/min, fragmentor, 380 V; sheath gas temperature, 300° C.; flow, 9 L/min; nozzle voltage, 500 V; capillary voltage, −500 V in ESI negative mode. The instrument was set to acquire data over the m/z range 50-1000, with the MS acquisition rate of 1 spectra/s. […]

[2] = tested on: Rat primary optic nerve OPCs; assay: In vitro OPC differentiation assay, MBP expression by Western blot; format: cell-based
Protocol: as §1
Western blot analysis. OPCs were plated in basal differentiation medium at 1.7×10^5 cells/well and treated for 6 days with benztropine (0.5 μM), miconazole (2 μM) with and without the tested endogenous metabolites, T3 (1 μM) or DMSO. After washing with PBS, cells were collected in ice cold RIPA buffer containing protease and phosphatase inhibitors. Following incubation on ice for >20 min and sonication, lysed cells were centrifuged (16,000 g, 15 min at 4° C.). Total protein was quantified using a BCA analysis and 25 μg of protein from each sample was denatured by boiling with Bolt LDS Sample Buffer (4×) and Sample Reducing Agent (10×). Proteins were electrophoresed using Bolt 4-12% Bis-Tris gels (Life Technologies) and transferred to a PVDF membrane (Bio-Rad). The membrane was blocked with Odyssey PBS Blocking Buffer (LI-COR) and incubated overnight at 4° C. with anti-MBP (mouse, 1:2000) and anti-actin (mouse, 1:5000). Blots were incubated with […] secondary donkey anti-mouse antibody (LI-COR, 1:7500) and imaged using Odyssey CLx and Image Studio (LI-COR).

OPCs [3] = assay: Caspase-Glo 3/7 and Cell Titer Glo assays of apoptosis and survival during differentiation; format: cell-based, rat
Protocol: Detection of caspase 3/7. In poly-D-lysine-coated white 96-well plates (Greiner), cells were seeded at 5,000 cells per well. Taurine (20 mM) was added on days 0 or 3, alone and in combination with benztropine (0.5 μM), miconazole (2 μM), T3 (1 μM) or Staurosporine (1 μM) added on day 0. The Caspase-Glo 3/7 Assay (Promega) was utilized to quantify caspase-3/7 activity 6, 24 and 48 h after drug and taurine addition on day 0. Caspase-3/7 activity was also measured 24, 48 and 72 h (days 4, 5 and 6) after taurine addition on day 3.

SMILES: NCCS(=O)(=O)O [taurine, 2-aminoethanesulfonic acid]
- Cysteine pool, increase with taurine (OPCs [1]; T3 1 μM): 58.8 fold
- Serine pool, increase with taurine (OPCs [1]; T3 1 μM): 17.1 fold
- Cysteine pool, increase with taurine (OPCs [1]; benztropine 0.5 μM): 154.4 fold
- Serine pool, increase with taurine (OPCs [1]; benztropine 0.5 μM): 10.0 fold
- Cysteine pool, increase with taurine (OPCs [1]; miconazole 2 μM): 76.5 fold
- Serine pool, increase with taurine (OPCs [1]; miconazole 2 μM): 19.4 fold
- GSH level, increase with taurine (OPCs [1]; day 3, T3 1 μM): 1.8 fold
- Cysteine level, increase with taurine (OPCs [1]; day 6, T3 1 μM): 26.6 fold
- GSH level, increase with taurine (OPCs [1]; day 6, T3 1 μM): 6.1 fold
- Serine level, increase with taurine (OPCs [1]; day 6, T3 1 μM): 2.1 fold
- Cysteine level, increase with taurine (OPCs [1]; day 6, benztropine 0.5 μM): 44.7 fold
- Serine level, increase with taurine (OPCs [1]; day 6, benztropine 0.5 μM): 13.4 fold
- Cysteine level, increase with taurine (OPCs [1]; day 6, miconazole 2 μM): 47.2 fold
- Serine level, increase with taurine (OPCs [1]; day 6, miconazole 2 μM): 92.5 fold
- Changes in GSH and glutamate with taurine (OPCs [1]; benztropine (0.5 μM) or miconazole (2 μM) treated cultures, both time points): only minimally altered
- MBP induction (Western blot), increase compared to benztropine-induced differentiation in the absence of taurine ([2]; 2 mM taurine added to benztropine (0.5 μM), 6 days): 2.0 fold
- MBP induction (Western blot), increase compared to miconazole-induced differentiation in the absence of taurine ([2]; 2 mM taurine added to miconazole (2 μM), 6 days): 2.3 fold
- Efficacy of induced OPC differentiation ([2]; added to benztropine- or miconazole-containing media): dramatically increase
- Apoptosis in OPCs treated with staurosporine (OPCs [3]; 20 mM taurine with 1 μM staurosporine (apoptosis inducer)): significantly inhibit
- Caspase 3/7 activation (OPCs [3]; 24 hours after taurine addition at day 0 or day 3, 1 μM T3, 0.5 μM benztropine or 2 μM miconazole): decrease
- Apoptosis or survival under basal differentiation conditions (OPCs [3]; DMSO vehicle): not found to impact
